What is called IC50 is the point on the concentration scale where inhibition reaches its midpoint.

One assay deals with T1, human EHMT2 913-1193 (Homo sapiens, UniProt Q96KQ7).
T1 construct: recombinant purified human EHMT2 913-1193, Viva; purchased Viva
T1 sequence (Q96KQ7 913-1193): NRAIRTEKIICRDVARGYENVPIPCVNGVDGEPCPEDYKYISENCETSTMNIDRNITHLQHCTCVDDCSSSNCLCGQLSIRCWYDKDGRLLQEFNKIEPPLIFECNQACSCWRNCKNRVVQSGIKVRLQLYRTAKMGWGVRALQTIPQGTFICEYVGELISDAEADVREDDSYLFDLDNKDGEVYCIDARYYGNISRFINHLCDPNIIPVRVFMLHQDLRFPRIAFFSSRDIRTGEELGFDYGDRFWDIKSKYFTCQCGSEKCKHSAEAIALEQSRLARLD
In words: EHMT2 enzyme assay on histone peptide substrate (EHMT2 PEP). The format is biochemical. To be noted: Table II; read-out: EHMT2 PEP (IC50 μM). The procedure, abridged:
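Compounds (10-point, 3-fold dilutions, top 50 μM final, 2% DMSO) preincubated 30 min with 0.031 nM EHMT2 in 20 mM Bicine pH 7.5, 0.002% Tween 20, 0.005% gelatin, 1 mM TCEP. Biotinylated histone peptide methylated with ^3H-SAM 60 min at room temperature. Quenched with unlabeled SAM; product captured on streptavidin Flashplate, scintillation counted.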

In the next assay the target is T2, EHMT1 (Homo sapiens, UniProt Q9H9B1).
T2 sequence (Q9H9B1 1-1298): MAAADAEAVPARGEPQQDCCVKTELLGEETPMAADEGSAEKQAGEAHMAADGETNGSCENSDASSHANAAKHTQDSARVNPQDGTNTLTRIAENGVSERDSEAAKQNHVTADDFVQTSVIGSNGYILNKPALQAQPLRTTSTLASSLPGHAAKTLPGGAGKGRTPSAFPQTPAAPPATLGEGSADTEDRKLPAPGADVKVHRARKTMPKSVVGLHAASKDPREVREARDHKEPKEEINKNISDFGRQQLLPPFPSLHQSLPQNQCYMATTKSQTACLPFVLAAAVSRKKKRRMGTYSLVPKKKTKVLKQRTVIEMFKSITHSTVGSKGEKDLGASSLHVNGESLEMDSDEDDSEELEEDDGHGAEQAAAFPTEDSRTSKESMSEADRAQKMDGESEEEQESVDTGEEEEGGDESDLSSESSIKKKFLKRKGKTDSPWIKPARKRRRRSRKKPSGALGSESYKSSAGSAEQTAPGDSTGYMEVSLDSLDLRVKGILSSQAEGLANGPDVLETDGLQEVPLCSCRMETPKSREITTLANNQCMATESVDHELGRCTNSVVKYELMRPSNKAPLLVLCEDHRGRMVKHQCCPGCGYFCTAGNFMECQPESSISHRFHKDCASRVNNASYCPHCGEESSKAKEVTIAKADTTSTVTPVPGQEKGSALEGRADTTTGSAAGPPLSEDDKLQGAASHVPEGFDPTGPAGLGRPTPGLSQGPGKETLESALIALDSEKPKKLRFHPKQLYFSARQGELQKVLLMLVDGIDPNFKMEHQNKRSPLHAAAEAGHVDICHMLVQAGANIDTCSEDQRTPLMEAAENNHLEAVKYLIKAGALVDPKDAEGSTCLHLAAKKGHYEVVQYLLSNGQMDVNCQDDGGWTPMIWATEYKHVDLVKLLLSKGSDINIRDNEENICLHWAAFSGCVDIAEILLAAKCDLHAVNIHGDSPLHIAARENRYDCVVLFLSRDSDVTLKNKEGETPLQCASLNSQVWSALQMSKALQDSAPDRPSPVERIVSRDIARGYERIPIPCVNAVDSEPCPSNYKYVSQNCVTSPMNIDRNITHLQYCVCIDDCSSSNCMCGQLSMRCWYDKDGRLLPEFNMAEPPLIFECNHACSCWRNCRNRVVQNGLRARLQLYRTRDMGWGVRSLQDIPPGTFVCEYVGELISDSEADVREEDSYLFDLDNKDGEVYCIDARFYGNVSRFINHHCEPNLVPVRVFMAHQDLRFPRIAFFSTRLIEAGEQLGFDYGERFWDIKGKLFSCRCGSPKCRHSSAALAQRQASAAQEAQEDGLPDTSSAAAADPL
In words: EHMT1 enzyme assay on peptide substrate (EHMT1 PEP). The format is biochemical. To be noted: Table II; read-out: EHMT1 PEP (IC50 μM).

Consider `COc1ccc(Nc2cccc(NC3CCC3)n2)cc1OCCCN1CCCC1` [Compound 35], for which the IC50 at human EHMT2 913-1193 and on EHMT1 was 0.1 to 1 µM each time.

Turning to `CNc1nccc(Nc2ccc(OC)c(OCCCN3CCCC3)c2)n1` [Compound 231], the IC50 on human EHMT2 913-1193 and on EHMT1 was 0.1 to 1 µM throughout.

As for `CNCc1cnc(Nc2ccc(OC)c(OCCCN3CCCC3)c2)nc1` [Compound 215], the IC50 on human EHMT2 913-1193 and on EHMT1 was greater than 10 µM throughout.

As to `CNc1ccnc(Nc2ccc3c(c2)N(C(=O)CCN(C)C)CC3)n1` [Compound 239], the IC50 on human EHMT2 913-1193 and on EHMT1 was greater than 10 µM in each case.

For `CNc1ccnc(Nc2cccc(OC[C@@H](O)CN3CCCC3)c2)n1` [Compound 253], the IC50 at human EHMT2 913-1193 and on EHMT1 was greater than 10 µM throughout.

In the case of `CNc1ccnc(Nc2cccc(OCCCN3CCCC3)c2)n1` [Compound 207, N^4-methyl-N^2-(3-(3-(pyrrolidin-1-yl)propoxy)phenyl)pyrimidine-2,4-diamine], the half-inhibitory concentration (IC50) at human EHMT2 913-1193 and on EHMT1 was 1 to 10 µM throughout.

Regarding `COc1ccc(Nc2nccc(NCC(C)(C)O)n2)cc1OCCCN1CCCC1` [Compound 42], the half-inhibitory concentration (IC50) at human EHMT2 913-1193 and on EHMT1 was 0.1 to 1 µM each time.

For the molecule `COc1ccc(Nc2ccc3nn(C)cc3c2)cc1OCCCN1CCCC1` [Compound 221], the IC50 on human EHMT2 913-1193 and on EHMT1 was greater than 10 µM in each case.

On to `COc1ccc(Nc2ncc3ncn(C)c3n2)cc1OCCCN1CCCC1` [Compound 219], for which the concentration for half-maximal inhibition (IC50) at human EHMT2 913-1193 and at EHMT1 was greater than 10 µM throughout.

Turning to `COc1ccc(Nc2nccc(NCC3CCN(C(C)C)CC3)n2)cc1OCCCN1CCCC1` [Compound 29], the IC50 on human EHMT2 913-1193 and on EHMT1 was less than 0.1 µM in each case.

Consider `CCc1cc(NC)nc(Nc2ccc(OC)c(OCCCN3CCCC3)c2)n1` [Compound 240], for which the IC50 at human EHMT2 913-1193 and on EHMT1 was less than 0.1 µM each time.

Turning to `COc1ccc(Nc2nccc(-n3nc(C)cc3C)n2)cc1OCCCN1CCCC1` [Compound 214], the IC50 at human EHMT2 913-1193 and at EHMT1 was greater than 10 µM in each case.

Consider `COc1ccc(Nc2nccc(NCC3(O)CCOCC3)n2)cc1OCCCN1CCCC1` [Compound 49], for which the half-maximal inhibitory concentration (IC50) on human EHMT2 913-1193 and on EHMT1 was 0.1 to 1 µM in each case.

Regarding `COc1ccc(Nc2ccc3ncc(C)n3n2)cc1OCCCN1CCCC1` [Compound 223], the IC50 at human EHMT2 913-1193 and on EHMT1 was 1 to 10 µM each time.

Consider `COc1ccc(CNc2ccnc(Nc3ccc(OC)c(OCCCN4CCCC4)c3)n2)cc1` [Compound 28], for which the half-inhibitory concentration (IC50) at human EHMT2 913-1193 and on EHMT1 was less than 0.1 µM in each case.

For `COc1ccc(Nc2nccc(NCc3ccncc3)n2)cc1OCCCN1CCCC1` [Compound 24], the IC50 on human EHMT2 913-1193 and on EHMT1 was less than 0.1 µM each time.

With `COc1ccc(Nc2nccc(NCc3ccccc3)n2)cc1OCCCN1CCCC1` [Compound 21], the values for the 50% inhibitory concentration (IC50) on human EHMT2 913-1193 and at EHMT1 were less than 0.1 µM and 0.1 to 1 µM, respectively.

For the molecule `COc1ccc(Nc2nccc(NCC3CCN(c4ccccc4)CC3)n2)cc1OCCCN1CCCC1` [Compound 33], the IC50 was less than 0.1 µM on human EHMT2 913-1193 and 0.1 to 1 µM on EHMT1.

As for `COc1ccc(Nc2nccc(NCC3CCCC3)n2)cc1OCCCN1CCCC1` [Compound 34], the IC50 at human EHMT2 913-1193 is less than 0.1 µM; on EHMT1, 0.1 to 1 µM.

Consider `COc1ccc(Nc2nccc(NCc3cnn(C)c3)n2)cc1OCCCN1CCCC1` [Compound 30], for which the values for the IC50 on human EHMT2 913-1193 and on EHMT1 were less than 0.1 µM and 0.1 to 1 µM, respectively.

With `COc1ccc(Nc2nccc(NCC3CCOCC3)n2)cc1NCCCN1CCCC1` [Compound 226], the IC50 at human EHMT2 913-1193 lay within 0.1 to 1 µM; on EHMT1, 1 to 10 µM.

`COc1ccc(Nc2nccc(NCC3CCN(C(C)=O)CC3)n2)cc1OCCCN1CCCC1` [Compound 47, 1-(4-(((2-((4-methoxy-3-(3-(pyrrolidin-1-yl)propoxy)phenyl)amino)pyrimidin-4-yl)amino)methyl)piperidin-1-yl)ethan-1-one]: the IC50 at human EHMT2 913-1193 and on EHMT1 was less than 0.1 µM in each case.

As for `CNc1ccnc(Nc2cccc(OC[C@H](O)CN3CCCC3)c2)n1` [Compound 252], the 50% inhibitory concentration (IC50) at human EHMT2 913-1193 and at EHMT1 was 1 to 10 µM each time.

As for `COc1ccccc1CNc1ccnc(Nc2ccc(OC)c(OCCCN3CCCC3)c2)n1` [Compound 36], the IC50 on human EHMT2 913-1193 was less than 0.1 µM; at EHMT1 it was 0.1 to 1 µM.

As for `COc1ccc(Nc2nccc(NCC3CCNCC3)n2)cc1CCNCC1CCCC1` [Compound 17, N^2-(3-(2-((cyclopentylmethyl)amino)ethyl)-4-methoxyphenyl)-N^4-(piperidin-4-ylmethyl)pyrimidine-2,4-diamine], the IC50 at human EHMT2 913-1193 and on EHMT1 was 0.1 to 1 µM each time.

Consider `COc1ccc(NCCCN2CCCC2)cc1Nc1nccc(NCC2CCOCC2)n1` [Compound 228], for which the IC50 at human EHMT2 913-1193 and at EHMT1 was greater than 10 µM each time.

For `COc1ccc(Nc2cnnc(NCC3CCN(C(C)=O)CC3)c2)cc1OCCCN1CCCC1` [Compound 242], the IC50 at human EHMT2 913-1193 and on EHMT1 was 1 to 10 µM throughout.

For the molecule `CNc1ccnc(Nc2ccc(OC)c(OCCCN3CCOCC3)c2)n1` [Compound 210], the half-maximal inhibitory concentration (IC50) at human EHMT2 913-1193 and on EHMT1 was 1 to 10 µM in each case.

Turning to `COc1ccc(Nc2nccc(NCc3cc[nH]n3)n2)cc1OCCCN1CCCC1` [Compound 46], the IC50 on human EHMT2 913-1193 was less than 0.1 µM; on EHMT1 it was 0.1 to 1 µM.

In the case of `COCCNc1ccnc(Nc2ccc(OC)c(OCCCN3CCCC3)c2)n1` [Compound 27], the IC50 at human EHMT2 913-1193 and at EHMT1 was 0.1 to 1 µM throughout.

On to `COc1ccc(Nc2nccc(NCC3CCN(C(C)=O)CC3)n2)cc1COCCN1CCCC1` [Compound 48], for which the half-inhibitory concentration (IC50) on human EHMT2 913-1193 and at EHMT1 was 0.1 to 1 µM throughout.

For the molecule `COc1ccc(Nc2nccc(NCC3CCOCC3)n2)cc1OC1CC2(C1)CN(C)C2` [Compound 243], the IC50 at human EHMT2 913-1193 and at EHMT1 was greater than 10 µM in each case.

`COc1ccc(Nc2nccc(NCCOc3ccccc3)n2)cc1OCCCN1CCCC1` [Compound 40]: the IC50 at human EHMT2 913-1193 and at EHMT1 was 0.1 to 1 µM in each case.

As for `COc1ccc(Nc2nccc3[nH]ncc23)cc1OCCCN1CCCC1` [Compound 249], the IC50 on human EHMT2 913-1193 and at EHMT1 was greater than 10 µM each time.

Regarding `COc1ccc(Nc2ccc3ncn(C)c3n2)cc1OCCCN1CCCC1` [Compound 218], the IC50 on human EHMT2 913-1193 and on EHMT1 was greater than 10 µM each time.

In the case of `CC(C)Nc1ccnc(Nc2cccc(OCCCN3CC[C@@H](F)C3)c2)n1` [Compound 251], the IC50 at human EHMT2 913-1193 and at EHMT1 was greater than 10 µM throughout.

With `COc1ccc(Nc2nccc(NCc3ccccn3)n2)cc1OCCCN1CCCC1` [Compound 23], the IC50 at human EHMT2 913-1193 and at EHMT1 was 0.1 to 1 µM each time.

As to `COc1cccc(CNc2ccnc(Nc3ccc(OC)c(OCCCN4CCCC4)c3)n2)c1` [Compound 26], the IC50 at human EHMT2 913-1193 is less than 0.1 µM; on EHMT1, 0.1 to 1 µM.

Turning to `COc1ccc(Nc2cccc3cn(C)nc23)cc1OCCCN1CCCC1` [Compound 222], the IC50 on human EHMT2 913-1193 and at EHMT1 was greater than 10 µM each time.

On to `COc1ccc(Nc2ccnc3[nH]ccc23)cc1OCCCN1CCCC1` [Compound 250], for which the half-inhibitory concentration (IC50) at human EHMT2 913-1193 and on EHMT1 was 1 to 10 µM each time.

With `CNc1cc(Nc2ccc(OC)c(OCCCN3CCCC3)c2)ccn1` [Compound 206], the IC50 at human EHMT2 913-1193 and at EHMT1 was 0.1 to 1 µM throughout.

For the molecule `COc1ccc(Nc2nccc(NCCc3cccnc3)n2)cc1OCCCN1CCCC1` [Compound 37], the IC50 at human EHMT2 913-1193 and on EHMT1 was 0.1 to 1 µM throughout.

The record behind these values is patent US20210198277A1, “AMINE-SUBSTITUTED ARYL OR HETEROARYL COMPOUNDS” (Epizyme, Inc., priority 2016, published 2021).
